# Test system: Rice (Variety: Nipponbare)
# Test: Test for evaluating promotion of root growth by hydroponics of rice (Test Examples 1-3)
# Assay type: in vivo
# Details: 0.1 ppm
# Description: Rice (Variety: Nipponbare)
# (§1) A DMSO solution, which contained one of the compounds 14, 18, 21, 23, 26, 28, 29, 30, 35, 36, 37, 39 and 40 of the present invention at a concentration of 100,000 ppm, was added to Hoagland hydroponic solution (Hoagland and Arnon, California Agricultural Experiment Station 1950 Circular 347 pp. 34) of ¼-fold concentration at a volume ratio of 1/10,000. In this manner, hydroponic solutions containing one of the compounds 14, 18, 21, 23, 26, 28, 29, 30, 35, 36, 37, 39 and 40 of the present invention at 10 ppm were prepared respectively. As an untreated control plot, a hydroponic solution obtained by adding DMSO to Hoagland hydroponic solution of ¼-fold concentration at a volume ratio of 1/10,000 was used.
# (§2) Rice seeds were soaked in a 1% aqueous sodium hypochlorite solution for 10 minutes, then soaked in a 70% ethanol solution for surface sterilization, and then washed with distilled water. The sterilized seeds were soaked in a hydroponic solution containing the test compound described above at 10 ppm and incubated in a dark place for 3 days at 28° C. to perform treatment for hastening germination.
# (§3) Thereafter, 30 ml of hydroponic solution containing the test compound at 10 ppm was dispensed in a plastic tube (diameter of 20 mm×height of 113 mm) of which the side was covered with cardboard to block light. A float prepared using a styrene board and vinyl mesh was floated, and the rice seeds that had undergone the treatment for hastening germination were placed on the float on the surface of the hydroponic solution. The seeds were cultivated for 3 days at 26° C., an illuminance of 4,000 lux of the top surface of the tube, a humidity of 50%, and a day length of 16 hours.
# The nursery plants of rice obtained after cultivating were measured in terms of the length of seminal root by using WinRHIZO system (manufactured by Regent Instruments Inc). For each test plot, an average of the measured values of the seminal root of 4 or 5 individuals were determined.
# as §1, with “compounds 7, 8, 9, 10, 12, 17, 20,” for “compounds 14, 18,”, “21, 25, 27,” for “21, 23, 26,”, “30, 34,” for “30,”, “37, 38,” for “37,”, “of 10,000” for “of 100,000”, “at 1” for “at 10”
# as §2, with “at 1” for “at 10”
# as §3, with “1” for “10”
# The nursery plants of rice obtained after cultivation were measured in terms of the length of seminal root by using WinRHIZO system (manufactured by Regent Instruments Inc). […]
row,SMILES,length of seminal root compared with the untreated control plot (in words)
1,NC(=O)c1csc2cccc(C(F)(F)F)c12 [Compound 19],obviously longer
2,Cc1sc2ccccc2c1C(=O)O [Compound 20],obviously longer
3,O=C(NCc1ccccc1)c1c(C(F)(F)F)sc2ccccc12 [Compound 26],obviously longer
4,COC(=O)c1csc2cc(C(F)(F)F)ccc12 [Compound 28],obviously longer
5,CCOC(=O)c1csc2cc(C(F)(F)F)ccc12 [Compound 29],obviously longer
6,NC(=O)c1csc2cc(C(F)(F)F)ccc12 [Compound 30],obviously longer
7,CNC(=O)c1csc2cc(C(F)(F)F)ccc12 [Compound 31],obviously longer
8,O=C(O)c1csc2c(C(F)(F)F)cccc12 [Compound 34],obviously longer
9,COC(=O)c1csc2c(C(F)(F)F)cccc12 [Compound 35],obviously longer
10,CCOC(=O)c1csc2c(C(F)(F)F)cccc12 [Compound 36],obviously longer
11,NC(=O)c1csc2c(C(F)(F)F)cccc12 [Compound 37],obviously longer
12,CNC(=O)c1csc2c(C(F)(F)F)cccc12 [Compound 38],obviously longer
13,O=C(Nc1ccccc1)c1csc2c(C(F)(F)F)cccc12 [Compound 39],obviously longer

# Same assay, conditions: 1 ppm
row,SMILES,length of seminal root compared with the untreated control plot (in words)
1,Cc1sc2ccccc2c1C(=O)O [Compound 20],obviously longer
2,O=C(Nc1ccccc1)c1c(C(F)(F)F)sc2ccccc12 [Compound 25],obviously longer
3,COC(=O)c1csc2cc(C(F)(F)F)ccc12 [Compound 28],obviously longer
4,CCOC(=O)c1csc2cc(C(F)(F)F)ccc12 [Compound 29],obviously longer
5,NC(=O)c1csc2cc(C(F)(F)F)ccc12 [Compound 30],obviously longer
6,O=C(O)c1csc2c(C(F)(F)F)cccc12 [Compound 34],obviously longer
7,COC(=O)c1csc2c(C(F)(F)F)cccc12 [Compound 35],obviously longer
8,CCOC(=O)c1csc2c(C(F)(F)F)cccc12 [Compound 36],obviously longer
9,NC(=O)c1csc2c(C(F)(F)F)cccc12 [Compound 37],obviously longer
10,CNC(=O)c1csc2c(C(F)(F)F)cccc12 [Compound 38],obviously longer
11,O=C(Nc1ccccc1)c1csc2c(C(F)(F)F)cccc12 [Compound 39],obviously longer

# Same assay, conditions: 10 ppm
row,SMILES,length of seminal root compared with the untreated control plot (in words)
1,NC(=O)c1c(C(F)(F)F)sc2ccccc12 [Compound 23],obviously longer
2,O=C(NCc1ccccc1)c1c(C(F)(F)F)sc2ccccc12 [Compound 26],obviously longer
3,COC(=O)c1csc2cc(C(F)(F)F)ccc12 [Compound 28],obviously longer
4,CCOC(=O)c1csc2cc(C(F)(F)F)ccc12 [Compound 29],obviously longer
5,NC(=O)c1csc2cc(C(F)(F)F)ccc12 [Compound 30],obviously longer
6,COC(=O)c1csc2c(C(F)(F)F)cccc12 [Compound 35],obviously longer
7,CCOC(=O)c1csc2c(C(F)(F)F)cccc12 [Compound 36],obviously longer
8,NC(=O)c1csc2c(C(F)(F)F)cccc12 [Compound 37],obviously longer
9,O=C(Nc1ccccc1)c1csc2c(C(F)(F)F)cccc12 [Compound 39],obviously longer

# Test system: Nicotiana benthamiana
# Test: Test for evaluating growth promotion under low-temperature stress by hydroponics of Nicotiana benthamiana (Test Examples 4-6)
# Assay type: in vivo
# Details: compound at 0.1 ppm, 7 days at 1.5±1.0° C. low-temperature stress, then 3 days at 22° C., green leaf area vs untreated control, read-out: value of a relative leaf area (equation (1))
# Description: A DMSO solution, which contained one of the compounds 5, 14, 22, 23, 24, 25, 26, 28, 30, 31, 32, 33, 34, 35, 38, 39 and 40 of the present invention at a concentration of 10,000 ppm, was prepared. The DMSO solution of the compound of the present invention was added at a volume ratio of 1/1,000 to the Murashige•Scoog medium of a ½-fold concentration (a medium containing 2.3 g of mixed salts (manufactured by Wako Pure Chemical Industries, Ltd.), 200 mg of Myo-inositol (manufactured by Sigma-Aldrich Co. LLC.), 2 mg of nicotinic acid (manufactured by Wako Pure Chemical Industries, Ltd.), 2 mg of pyridoxine hydrochloride (manufactured by Wako Pure Chemical Industries, Ltd.), 20 mg of thiamine hydrochloride (manufactured by Wako Pure Chemical Industries, Ltd.), 20 g of sucrose (manufactured by Wako Pure Chemical Industries, Ltd.), and 1 g of MES (manufactured by DOJINDO LABORATORIES) per 1 L of water and having pH adjusted to 5.8), thereby preparing a medium containing the compound of the present invention at a concentration of 10 ppm.
# Seeds of Nicotiana benthamiana were seeded in the 5 μL of the medium and cultured overnight at 22° C. Thereafter, 45 μL of the medium containing the compound of the present invention at a concentration of 10 ppm was added thereto, and the seeds are cultivated for 7 days at 22° C., an illuminance of 4,000 lux, and a day length of 16 hours, thereby the nursery plants raised from the Nicotiana benthamiana were treated with the compound.
# Moreover, instead of the above medium a test plot, which was obtained by performing the same treatment by using a medium prepared by adding DMSO to the Murashige•Scoog medium of ½-fold concentration at a volume ratio of 1/1,000, was used as a control plot not treated with the compound.
# The nursery plants of the Nicotiana benthamiana treated with the compound were subjected to low-temperature treatment by being cultivated for 7 days at 1.5±1.0° C., an illuminance of 2,000 lux, and a day length of 16 hours.
# The nursery plants of the Nicotiana benthamiana having undergone the low-temperature stress treatment were cultivated for 3 days at 22° C., an illuminance of 4,000 lux, and a day length of 16 hours. Thereafter, the area of green leaf was quantified by Scanalyzer HTS (manufactured by LemnaTec GmbH). Moreover, the value of the control plot not treated with the compound that had not yet been subjected to the low-temperature stress treatment was measured in the same manner. A value of a relative leaf area was calculated based on the following equation (1), and if the value of a relative leaf area was 5 or greater, the compound was evaluated to have a mitigating effect. As a result of the evaluation, it was confirmed that when the plant was treated with one of the compounds 5, 14, 22, 23, 24, 25, 26, 28, 30, 31, 32, 33, 34, 35, 38, 39 and 40 of the present invention at 10 ppm, the value of a relative leaf area was 5 or greater, compared to the area of green leaf of the control plot not treated with compound. Accordingly, it was confirmed that the treatment using the compound of the present invention brings about a growth promotion effect. Relative leaf area=100*(a green area of a plot treated with the compound of the present invention−a green area of a control plot not treated with the compound of the present invention)/(a green area of a control plot not treated with the compound of the present invention that has not yet been subjected to low-temperature stress treatment−a green area of a control plot not treated with the compound of the present invention) Equation (1): […]
# A DMSO solution, which contained one of the compounds 6, 7, 8, 11, 12, 15, 19, 23, 24, 25, 28, 30, 31, 33, 34, 36, 37, 38 and 39 of the present invention at a concentration of 1,000 ppm, was prepared. […]
row,SMILES,relative green leaf area after low-temperature stress at 0.1 ppm [%]
1,Cc1sc2ccccc2c1C(=O)O [Compound 20],≥ 5
2,O=C(NCc1ccccc1)c1c(C(F)(F)F)sc2ccccc12 [Compound 26],≥ 5
3,COC(=O)c1csc2cc(C(F)(F)F)ccc12 [Compound 28],≥ 5
4,CCOC(=O)c1csc2cc(C(F)(F)F)ccc12 [Compound 29],≥ 5
5,NC(=O)c1csc2cc(C(F)(F)F)ccc12 [Compound 30],≥ 5
6,CNC(=O)c1csc2cc(C(F)(F)F)ccc12 [Compound 31],≥ 5
7,O=C(O)c1csc2c(C(F)(F)F)cccc12 [Compound 34],≥ 5
8,COC(=O)c1csc2c(C(F)(F)F)cccc12 [Compound 35],≥ 5
9,CCOC(=O)c1csc2c(C(F)(F)F)cccc12 [Compound 36],≥ 5

# Same assay, conditions: compound at 1 ppm, 7 days at 1.5±1.0° C. low-temperature stress, then 3 days at 22° C., green leaf area vs untreated control, read-out: value of a relative leaf area (equation (1))
row,SMILES,relative green leaf area after low-temperature stress at 1 ppm [%]
1,NC(=O)c1csc2cccc(C(F)(F)F)c12 [Compound 19],≥ 5
2,NC(=O)c1c(C(F)(F)F)sc2ccccc12 [Compound 23],≥ 5
3,O=C(Nc1ccccc1)c1c(C(F)(F)F)sc2ccccc12 [Compound 25],≥ 5
4,COC(=O)c1csc2cc(C(F)(F)F)ccc12 [Compound 28],≥ 5
5,NC(=O)c1csc2cc(C(F)(F)F)ccc12 [Compound 30],≥ 5
6,CNC(=O)c1csc2cc(C(F)(F)F)ccc12 [Compound 31],≥ 5
7,O=C(O)c1csc2c(C(F)(F)F)cccc12 [Compound 34],≥ 5
8,CCOC(=O)c1csc2c(C(F)(F)F)cccc12 [Compound 36],≥ 5
9,NC(=O)c1csc2c(C(F)(F)F)cccc12 [Compound 37],≥ 5
10,CNC(=O)c1csc2c(C(F)(F)F)cccc12 [Compound 38],≥ 5
11,O=C(Nc1ccccc1)c1csc2c(C(F)(F)F)cccc12 [Compound 39],≥ 5

# Same assay, conditions: compound at 10 ppm, 7 days at 1.5±1.0° C. low-temperature stress, then 3 days at 22° C., green leaf area vs untreated control, read-out: value of a relative leaf area (equation (1))
row,SMILES,relative green leaf area after low-temperature stress at 10 ppm [%]
1,NC(=O)c1c(C(F)(F)F)sc2ccccc12 [Compound 23],≥ 5
2,O=C(Nc1ccccc1)c1c(C(F)(F)F)sc2ccccc12 [Compound 25],≥ 5
3,O=C(NCc1ccccc1)c1c(C(F)(F)F)sc2ccccc12 [Compound 26],≥ 5
4,COC(=O)c1csc2cc(C(F)(F)F)ccc12 [Compound 28],≥ 5
5,NC(=O)c1csc2cc(C(F)(F)F)ccc12 [Compound 30],≥ 5
6,CNC(=O)c1csc2cc(C(F)(F)F)ccc12 [Compound 31],≥ 5
7,O=C(O)c1csc2c(C(F)(F)F)cccc12 [Compound 34],≥ 5
8,COC(=O)c1csc2c(C(F)(F)F)cccc12 [Compound 35],≥ 5
9,CNC(=O)c1csc2c(C(F)(F)F)cccc12 [Compound 38],≥ 5
10,O=C(Nc1ccccc1)c1csc2c(C(F)(F)F)cccc12 [Compound 39],≥ 5

# From patent US9872493B2, “Method for promoting plant growth” (SUMITOMO CHEMICAL COMPANY, LIMITED, priority 2012, dated 2018)
